Test results published in PubChem BioAssay AID248 (DTP/NCI, 2004).
Where “and” joins values, the source holds several entries; their conditions need not be identical. Identical values can stand only once. Toxic doses and inconclusive results are not listed. Rule as the data show it: active = T/C of 150% or more; inactive = T/C below 125%.

Tested on: L1210 leukemia ip in BDF1 mice, survival T/C
Assay: NCI In Vivo Anticancer Drug Screen. Data for tumor model L1210 Leukemia (intraperitoneal) in B6D2F1 (BDF1) mice
Details: endpoint: mean survival time, higher = longer survival
Outline: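 Read-out is survival time, reported as the treated-group measurement over the vehicle-control measurement.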

[1] = dose: 6.25 mg/kg/injection, schedule: Q01DX009 (ip), vehicle: saline
[2] = dose: 12.5 mg/kg/injection, schedule: Q01DX009 (ip), vehicle: saline
[3] = dose: 25.0 mg/kg/injection, schedule: Q01DX009 (ip), vehicle: saline
[4] = dose: 100.0 mg/kg/injection, schedule: Q01DX001 (ip), vehicle: saline
[5] = dose: 200.0 mg/kg/injection, schedule: Q01DX001 (ip), vehicle: saline
[6] = dose: 400.0 mg/kg/injection, schedule: Q01DX001 (ip), vehicle: saline
[7] = dose: 100.0 mg/kg/injection, schedule: Q01DX009 (ip), vehicle: saline with Tween-80
[8] = dose: 200.0 mg/kg/injection, schedule: Q01DX009 (ip), vehicle: saline with Tween-80
[9] = dose: 100.0 mg/kg/injection, schedule: Q01DX001 (ip), vehicle: Klucel (hydroxypropylcellulose) (HPC)
[10] = dose: 200.0 mg/kg/injection, schedule: Q01DX001 (ip), vehicle: Klucel (hydroxypropylcellulose) (HPC)
[11] = dose: 400.0 mg/kg/injection, schedule: Q01DX001 (ip), vehicle: Klucel (hydroxypropylcellulose) (HPC)

Measured: T/C

O=[N+]([O-])c1cc(S(=O)(=O)OCC2CO2)ccc1Cl (stereo not given)
inactive: dose: 6.25 mg/kg/injection, schedule: Q04DX003 (ip), vehicle: Klucel (hydroxypropylcellulose) (HPC) 98 % of control | dose: 12.5 mg/kg/injection, schedule: Q01DX009 (ip), vehicle: Klucel (hydroxypropylcellulose) (HPC) 96 % of control | dose: 12.5 mg/kg/injection, schedule: Q04DX003 (ip), vehicle: Klucel (hydroxypropylcellulose) (HPC) 98 % of control | dose: 25.0 mg/kg/injection, schedule: Q01DX009 (ip), vehicle: Klucel (hydroxypropylcellulose) (HPC) 90 % of control | dose: 25.0 mg/kg/injection, schedule: Q04DX003 (ip), vehicle: Klucel (hydroxypropylcellulose) (HPC) 101 % of control | dose: 50.0 mg/kg/injection, schedule: Q04DX003 (ip), vehicle: Klucel (hydroxypropylcellulose) (HPC) 103 % of control

CCc1ccccc1N/N=C(\Cl)C(C)=O
inactive: [1] 106 % of control | [2] 106 % of control | [3] 95 % of control

COC(=O)[C@H]1[C@H]2C[C@@H]3c4[nH]c5ccccc5c4CCN3C[C@H]2C[C@@H](OC(=O)c2cc(OC)c(OC)c(OC)c2)[C@@H]1OC
inactive: dose: 0.23 mg/kg/injection, schedule: Q01DX009 (ip), vehicle: Klucel (hydroxypropylcellulose) (HPC) 93 % of control | dose: 0.23 mg/kg/injection, schedule: Q04DX003 (ip), vehicle: saline 95 % of control | dose: 0.46 mg/kg/injection, schedule: Q01DX009 (ip), vehicle: Klucel (hydroxypropylcellulose) (HPC) 90 % of control | dose: 0.46 mg/kg/injection, schedule: Q04DX003 (ip), vehicle: saline 104 % of control | dose: 0.93 mg/kg/injection, schedule: Q01DX009 (ip), vehicle: Klucel (hydroxypropylcellulose) (HPC) 101 % of control | dose: 0.93 mg/kg/injection, schedule: Q04DX003 (ip), vehicle: saline 112 % of control | dose: 1.87 mg/kg/injection, schedule: Q01DX009 (ip), vehicle: Klucel (hydroxypropylcellulose) (HPC) 88 % of control | dose: 1.87 mg/kg/injection, schedule: Q04DX003 (ip), vehicle: saline 98 % of control | dose: 3.75 mg/kg/injection, schedule: Q04DX003 (ip), vehicle: saline 101 % of control

Nc1ccc(N=Nc2ccccc2Cl)c(N)n1
inactive: dose: 50.0 mg/kg/injection, schedule: Q01DX001 (ip), vehicle: other 103 % of control | dose: 100.0 mg/kg/injection, schedule: Q01DX001 (ip), vehicle: other 100 % of control | dose: 200.0 mg/kg/injection, schedule: Q01DX001 (ip), vehicle: other 94 % of control | dose: 400.0 mg/kg/injection, schedule: Q01DX001 (ip), vehicle: other 100 % of control

CC(C)(CO)N=Cc1ccc(Cl)cc1Cl
inactive: [4] 93 % of control | [5] 102 % of control | [6] 102 % of control

OCCOCCOCCOCCO
inactive: [4] 109 % of control | [5] 105 % of control | [6] 100 % of control

CCN(CC)CCOC(=O)Nc1cccc(Cl)c1
inactive: [3] 100 % of control | dose: 50.0 mg/kg/injection, schedule: Q01DX009 (ip), vehicle: saline 98 % of control | dose: 100.0 mg/kg/injection, schedule: Q01DX009 (ip), vehicle: saline 100 % of control and 109 % of control

C/C=C(\c1ccccc1)[N+](=O)[O-]
inactive: dose: 12.5 mg/kg/injection, schedule: Q01DX001 (ip), vehicle: acetone 100 % of control | dose: 12.5 mg/kg/injection, schedule: Q04DX003 (ip), vehicle: acetone 98 % of control | dose: 18.75 mg/kg/injection, schedule: Q01DX009 (ip), vehicle: acetone 98 % of control | dose: 25.0 mg/kg/injection, schedule: Q01DX001 (ip), vehicle: acetone 92 % of control | dose: 25.0 mg/kg/injection, schedule: Q04DX003 (ip), vehicle: acetone 98 % of control | dose: 37.5 mg/kg/injection, schedule: Q01DX009 (ip), vehicle: acetone 106 % of control | dose: 50.0 mg/kg/injection, schedule: Q01DX001 (ip), vehicle: acetone 97 % of control | dose: 50.0 mg/kg/injection, schedule: Q04DX003 (ip), vehicle: acetone 100 % of control | dose: 75.0 mg/kg/injection, schedule: Q01DX009 (ip), vehicle: acetone 88 % of control | dose: 75.0 mg/kg/injection, schedule: Q04DX003 (ip), vehicle: saline 94 % of control

O=[N+]([O-])c1ccccc1N=P(c1ccccc1)(c1ccccc1)c1ccccc1
inactive: dose: 50.0 mg/kg/injection, schedule: Q01DX009 (ip), vehicle: DMSO 91 % of control | dose: 100.0 mg/kg/injection, schedule: Q01DX009 (ip), vehicle: DMSO 88 % of control | dose: 100.0 mg/kg/injection, schedule: Q04DX003 (ip), vehicle: DMSO 93 % of control | dose: 200.0 mg/kg/injection, schedule: Q04DX003 (ip), vehicle: DMSO 93 % of control

O=C1C=CC(=O)N1c1cccc(N2C(=O)C=CC2=O)c1
inactive: dose: 8.0 mg/kg/injection, schedule: Q04DX003 (ip), vehicle: saline 102 % of control | dose: 16.0 mg/kg/injection, schedule: Q04DX003 (ip), vehicle: saline 95 % of control

Cc1ncc(C(C)(O)c2ccccc2)n1C (stereo not given)
inactive: [7] 105 % of control | [8] 94 % of control

CCCCS(=O)(=O)c1ccc(OC)c(NC(C)=O)c1
inactive: dose: 75.0 mg/kg/injection, schedule: Q04DX003 (ip), vehicle: Klucel (hydroxypropylcellulose) (HPC) 103 % of control | [9] 98 % of control | dose: 150.0 mg/kg/injection, schedule: Q04DX003 (ip), vehicle: Klucel (hydroxypropylcellulose) (HPC) 96 % of control | [10] 107 % of control | dose: 300.0 mg/kg/injection, schedule: Q04DX003 (ip), vehicle: Klucel (hydroxypropylcellulose) (HPC) 107 % of control | [11] 100 % of control

CCOC(=O)c1ccc(NC(=O)Oc2ccc(C(=O)OC)cc2)cc1
inactive: dose: 100.0 mg/kg/injection, schedule: Q01DX009 (ip), vehicle: Klucel (hydroxypropylcellulose) (HPC) 102 % of control | dose: 200.0 mg/kg/injection, schedule: Q01DX009 (ip), vehicle: Klucel (hydroxypropylcellulose) (HPC) 95 % of control | dose: 400.0 mg/kg/injection, schedule: Q01DX009 (ip), vehicle: Klucel (hydroxypropylcellulose) (HPC) 100 % of control

O=C(NC/C(Br)=C/Br)c1ccccc1
inactive: dose: 100.0 mg/kg/injection, schedule: Q04DX003 (ip), vehicle: Klucel (hydroxypropylcellulose) (HPC) 96 % of control | dose: 200.0 mg/kg/injection, schedule: Q04DX003 (ip), vehicle: Klucel (hydroxypropylcellulose) (HPC) 100 % of control | dose: 400.0 mg/kg/injection, schedule: Q04DX003 (ip), vehicle: Klucel (hydroxypropylcellulose) (HPC) 96 % of control

COC(=O)CC(C(=O)OC)N1CC1 (stereo not given)
inactive: dose: 75.0 mg/kg/injection, schedule: Q01DX001 (ip), vehicle: carboxymethylcellulose (CMC) 101 % of control

O=S1(=O)Oc2c(Cl)cc(Cl)cc2S(=O)(=O)Oc2c(Cl)cc(Cl)cc21
inactive: [9] 105 % of control | [10] 105 % of control | [11] 98 % of control

Cc1ccc(NS(=O)(=O)c2ccccc2)nc1
inactive: [7] 96 % of control | dose: 100.0 mg/kg/injection, schedule: Q04DX003 (ip), vehicle: saline with Tween-80 99 % of control | [8] 98 % of control | dose: 200.0 mg/kg/injection, schedule: Q04DX003 (ip), vehicle: saline with Tween-80 93 % of control | dose: 400.0 mg/kg/injection, schedule: Q01DX009 (ip), vehicle: saline with Tween-80 98 % of control | dose: 400.0 mg/kg/injection, schedule: Q04DX003 (ip), vehicle: saline with Tween-80 96 % of control

CCCCNC(=O)COc1c(C)cccc1Cl
inactive: dose: 25.0 mg/kg/injection, schedule: Q04DX002 (ip), vehicle: saline with Tween-80 101 % of control | dose: 50.0 mg/kg/injection, schedule: Q04DX002 (ip), vehicle: saline with Tween-80 96 % of control | dose: 100.0 mg/kg/injection, schedule: Q04DX002 (ip), vehicle: saline with Tween-80 96 % of control

O=[N+]([O-])n1cnnc1-c1ccccc1
inactive: dose: 12.5 mg/kg/injection, schedule: Q04DX003 (ip), vehicle: gum acacia 96 % of control | dose: 25.0 mg/kg/injection, schedule: Q04DX003 (ip), vehicle: gum acacia 102 % of control | dose: 50.0 mg/kg/injection, schedule: Q04DX003 (ip), vehicle: gum acacia 98 % of control

CC(C)=CC(=O)OCC[N+](C)(C)C
inactive: dose: 3.12 mg/kg/injection, schedule: Q01DX009 (ip), vehicle: saline 104 % of control | [1] 98 % of control | [2] 102 % of control and 109 % of control
